Patent publication US11530196B2, “Pyrimidine compound acting on EGFR and ERBB2” (CHINA RESOURCES PHARMACEUTICAL HOLDINGS COMPANY LIMITED, priority 2019, dated 2022)
Several values for one entry are separate records, joined by “and”; a condition that tells them apart may be missing. Identical values can stand only once.

Columns and labels:
[1] = molecular target: EGFR exon 20 insertion (D770_N771insNPG) enzyme (Homo sapiens, UniProt P00533, INS770NPG); experiment: Kinase assay (HTRF KinEASE TK), EGFR exon 20 insertion; format: biochemical
Sequence of EGFR exon 20 insertion (D770_N771insNPG) enzyme (P00533 with tags, fused parts or gaps INS770NPG limits assumed): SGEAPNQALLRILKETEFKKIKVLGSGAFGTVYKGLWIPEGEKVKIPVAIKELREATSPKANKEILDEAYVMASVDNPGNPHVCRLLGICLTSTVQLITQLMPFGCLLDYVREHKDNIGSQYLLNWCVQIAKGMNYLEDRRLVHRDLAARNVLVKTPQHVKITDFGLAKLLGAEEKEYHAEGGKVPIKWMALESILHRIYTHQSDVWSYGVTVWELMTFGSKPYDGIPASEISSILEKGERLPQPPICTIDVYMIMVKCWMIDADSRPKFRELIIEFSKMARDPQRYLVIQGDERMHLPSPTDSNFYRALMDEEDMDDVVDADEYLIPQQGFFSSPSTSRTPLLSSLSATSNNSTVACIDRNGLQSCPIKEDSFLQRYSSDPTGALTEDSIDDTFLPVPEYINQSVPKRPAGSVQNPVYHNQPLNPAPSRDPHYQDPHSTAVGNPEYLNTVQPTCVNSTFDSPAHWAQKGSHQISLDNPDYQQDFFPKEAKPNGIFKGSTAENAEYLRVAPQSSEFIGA
Description: To detect the inhibitory effect of compounds on EGFR WT, EGFR (D770_N771insNPG), ERBB2 (V777_G778ins>CG), EGFR T790M/L858R enzyme activities
EGFR WT (Invitrogen, Cat. No. PR7295B), EGFR [L858R] (Invitrogen, Cat. No. PR7447A), EGFR [d746-750] (Invitrogen, Cat. No. PV6179), ATP (Sigma, Cat. No. A7699-1G), DMSO (Sigma, Cat. No. D2650), DTT (Sigma, Cat. No. 43815), 384-well plate, compound dilution plate (Greiner, Cat. No. 781280), 384-well plate, test plate (Perkin Elmer, Cat. No. 6007299), HTRF KinEASE TK Kit (Cisbio, Cat. No. 62TK0PEB), magnesium chloride (Sigma, Cat. No. M1028), Orthovanadate (Sigma, Cat. No. 56508), BSA (Sigma, Cat. No. A7030), HEPES (Life technology, Cat. No. 11344-041).
The final test concentrations of the test compounds ranged from 10 μM to 0.17 nM in 3-fold gradient dilutions at 11 concentrations.
The preparation of the buffer, 50 mM HEPES (pH 7.5), 0.01% BSA, 5 mM MgCl2, and 0.1 mM Orthovanadate were contained in the buffer. After the preparation of the buffer, the enzyme and substrate were mixed with pre-diluted prepared compounds of different concentrations, and the mixture was placed at room temperature for 15 minutes. […] After the reaction was completed, the antibody was added to the assay, incubated at room temperature for 60 minutes and then detected by Envision (plate reading instrument), and data were collected. […]

[2] = tested on: Ba/F3 (EGFR-D770_N771insSVD) subcutaneous allograft tumor; experiment: Ba/F3 EGFR D770_N771 ins SVD subcutaneous allograft tumor model; format: in vivo, Nude mouse (BALB/c Nude)
Protocol: Ba/F3 (EGFR-D770_N771insSVD) cells were artificially constructed cell lines with EGFR-D770_N771insSVD insertion mutation using mouse B cells. The CDX model established by this cell line was used to evaluate the inhibitory effect of preferred compounds on Exon 20 EGFR-D770_N771insSVD insertion mutation in animals.
Nude mouse (BALB/c Nude), Ba/F3 (EGFR-D770_N771insSVD) cell line
1. Cell culture: cells were cultured in vitro in monolayer, culture conditions were RPMI-1640 (cell culture medium) with 10% fetal bovine serum, 100 U/mL penicillin and 100 µg/mL streptomycin, the cells were cultured at a 37° C., 5% CO2 incubator. Conventional digestion with trypsin-EDTA was performed twice a week for passage. When the saturation of Ba/F3 (EGFR-D770_N771insSVD) cell was 80%-90%, and the number reached the requirement, the cells were harvested and counted. The density was 5×10^6 cells.
2. Cell inoculation: 0.2 mL (containing 5×10^6 cells) of Ba/F3 (EGFR-D770_N771insSVD) cell suspension (PBS:Matrigel=1:1) was inoculated subcutaneously on the right back of each mouse, for a total of 64 mice. On the 7th day after inoculation, when the average tumor volume reached 133 mm^3, the randomized stratified grouping method was used to start the grouping administration according to the tumor volume and animal weight. PBS was phosphate buffer and Matrigel was matrix.
3. Administration: The dose was 0-7 days: 10 mg/kg, 8-21 days: 40 mg/kg; oral administration; administration frequency: once a day×3 weeks.
Tumor diameters were measured with vernier calipers twice a week. The calculation formula of tumor volume was: V=0.5a×b^2, wherein a and b represented the long and short diameters of the tumor, respectively.
The antitumor efficacy of the compounds was evaluated by TGI (%) or relative tumor proliferation rate T/C (%).
Relative tumor proliferation rate T/C (%)=TRTV/CRTV×100% (TRTV: mean RTV in the treatment group; CRTV: mean RTV in the solvent control group).
The relative tumor volume (RTV) was calculated according to the results of tumor measurement. The calculation formula was RTV=Vt/V0, wherein V0 was the tumor volume measured at the time of group administration (i.e., D0), and Vt was the tumor volume corresponding to a certain measurement. TRTV and CRTV were taken on the same day.
TGI (%), reflecting the tumor growth inhibition rate. TGI (%)=[(1−(average tumor volume at the end of administration of a treatment group−average tumor volume at the beginning of administration of this treatment group))/(average tumor volume at the end of treatment in the solvent control group−average tumor volume at the beginning of treatment of the solvent control group)]×100%.

[3] = tested on: H1975 (L858R/T790M) cells; experiment: Anti-proliferation activity test against H1975 cells; format: cell-based; conditions: Homo sapiens, NCI-H1975, Cell-Titer Glo, 72 hours
Protocol: (2) Anti-Proliferation Activity Test of the Compound Against H1975 Cells and IC50 Test of Anti-Proliferation Activity Against A431 Cells
RPMI1640 medium, FBS fetal bovine serum, trypsin-EDTA, were all purchased from Giboco. DPBS was purchased from Corning, penicillin/streptomycin solution was purchased from Hyclone, and Cell-Titer Glo reagent was purchased from Promega (1kit, Cat. No. G7571). Plate reading instrument: Envision (PerkinElmer).
384-well plates in columns 1, 2, and 24 were added with 45 μL of medium, and the cell suspension was dispensed with Multi-drop at 45 μL per well (1000 cells) and incubated overnight in an incubator. The compound was added to the source plate according to the Echo dispensing requirements, the compound in the source plate was added to the inter plate and diluted to an intermediate concentration, then the compound in the source plate and the inter plate was added to the cell plate, and the cells were continued to be incubated in a incubator for 72 hours. After 72 hours, Cell-Titer Glo reagent and cells were removed and equilibrated at room temperature for 30 min. 25 μL of Cell-Titer Glo reagent was dispensed into 384-well plates with Multi-drop, the cell plate was vibrated at medium speed for 3 min, centrifuged at 1000 rpm for 2 min, and stood for 10 min. The plate was read by Envision (Luminescence). […]

[4] = Day 14, oral once a day, 0-7 days 10 mg/kg, 8-21 days 40 mg/kg

IC50 [1]: 0.8 nM and 0.7 nM
IC50 [3]: 15.3 nM
Compound: C=CC(=O)Nc1cc(Nc2ncc(C(=O)OC(C)C)c(-c3cn(OC)c4ccccc34)n2)c(OC)cc1N(C)CCN(C)C.CS(=O)(=O)O [Compound 1]
Tumor volume (Day 0) ([2]; Day 0 (grouping), mean ± standard error, n = 6): 133.2 ± 8.2 mm^3
RTV [2, 4]: 1.9
T/C [2, 4]: 14.9%
TGI [2, 4]: 92.1%
Tumor volume (Day 14) [2, 4]: 259.1 ± 35.2 mm^3
